Results on 20 compounds are retold here after patent US9115133B2, “Substituted fused tricyclic compounds, compositions and medicinal applications thereof” (Advinus Therapeutics Limited, priority 2011, dated 2015).

pIC50: −log10 of the molar value. Where only a bound is given, the exact number is not on record here.

What all share (format): biochemical
What all share (conditions): 200 μg/ml Poly Glu-Tyr (4:1), ATP 1 uM, 90 min room temperature, luminescence

Test [1] has as its target T1, Recombinant JAK1 (Amino acids 850-1154) (Homo sapiens, UniProt P23458).
T1 construct: Recombinant JAK1 (Amino acids 850-1154; NM_002227.2); made in house; host or cells: baculovirus expression system (Bac-to-Bac)
Briefly: Kinase-Glo Luminescent Kinase Assay, recombinant JAK1. A digest of the protocol: (§1)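 Baculovirus-expressed kinase domains were pre-incubated 5 min with compound (1% DMSO), then reacted 90 min at room temperature with 200 μg/ml poly Glu-Tyr (4:1) and 1 uM ATP in 50 mM HEPES pH 7.4, 5 mM MgCl2. Remaining ATP was read by Kinase-Glo luminescence. IC50 came from four-parameter logistic fits.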

Test [2] addresses T2, Recombinant JAK3 (Amino acids 781-1124) (Homo sapiens, UniProt P52333).
T2 construct: JAK3 (Amino acids 781-1124; NM_000215.3); made in house; host or cells: baculovirus expression system (Bac-to-Bac)
In words: Kinase-Glo Luminescent Kinase Assay, recombinant JAK3. The essentials:
as §1
A general note: In Kinase-Glo more light means more ATP remaining.

Test [3] has as its target T3, Recombinant JAK2 (Amino acids 808-1132) (Homo sapiens, UniProt O60674).
T3 construct: JAK2 (Amino acids 808-1132; NM_004972.3); made in house; host or cells: baculovirus expression system (Bac-to-Bac)
Briefly: Kinase-Glo Luminescent Kinase Assay, recombinant JAK2. The essentials: as §1

T1 sequence (P23458 850-1154): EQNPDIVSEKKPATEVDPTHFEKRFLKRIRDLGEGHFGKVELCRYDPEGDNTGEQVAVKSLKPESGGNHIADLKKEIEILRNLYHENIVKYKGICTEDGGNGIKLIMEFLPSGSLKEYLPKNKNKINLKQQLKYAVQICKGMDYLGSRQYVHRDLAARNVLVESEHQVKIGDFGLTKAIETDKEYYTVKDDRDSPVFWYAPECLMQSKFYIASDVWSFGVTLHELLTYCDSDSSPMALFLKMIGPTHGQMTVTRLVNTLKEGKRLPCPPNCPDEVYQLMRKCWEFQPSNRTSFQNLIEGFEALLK
T2 sequence (P52333 781-1124): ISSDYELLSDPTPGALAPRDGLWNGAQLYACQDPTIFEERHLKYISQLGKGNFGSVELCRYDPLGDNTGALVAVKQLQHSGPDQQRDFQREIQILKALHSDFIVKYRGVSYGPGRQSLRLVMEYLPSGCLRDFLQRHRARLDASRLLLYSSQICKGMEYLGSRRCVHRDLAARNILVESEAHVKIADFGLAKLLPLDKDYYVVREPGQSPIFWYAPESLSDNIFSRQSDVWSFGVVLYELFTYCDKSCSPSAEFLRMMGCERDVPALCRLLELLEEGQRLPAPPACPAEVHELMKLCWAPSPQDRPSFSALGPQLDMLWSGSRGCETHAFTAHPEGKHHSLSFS
T3 sequence (O60674 808-1132): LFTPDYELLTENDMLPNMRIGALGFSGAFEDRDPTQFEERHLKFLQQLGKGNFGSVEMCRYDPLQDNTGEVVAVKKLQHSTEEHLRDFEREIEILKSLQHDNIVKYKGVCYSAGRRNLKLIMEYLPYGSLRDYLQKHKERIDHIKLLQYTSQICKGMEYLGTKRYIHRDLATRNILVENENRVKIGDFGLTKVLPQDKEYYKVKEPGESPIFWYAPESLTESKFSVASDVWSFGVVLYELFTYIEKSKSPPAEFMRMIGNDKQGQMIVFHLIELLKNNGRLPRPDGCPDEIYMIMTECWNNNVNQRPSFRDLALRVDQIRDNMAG

On to `N#C/N=C(\CC(F)(F)F)N1CCC(c2ccnc3cnc4[nH]ccc4c23)C1` (stereo not drawn) [Ex. 45, (E)-[3,3,3-trifluoro-1-[3-(3H-pyrrolo[3,2-f][1,7]naphthyridin-9-yl)pyrrolidin-1-yl]propylidene]cyanamide], for which the pIC50 in test [1] is 7.70 to 9.00; in test [2] it was less than 7.70; in test [3] it was 7.70 to 9.00.
On to `CN(C)C(=O)N1CCCC(c2ccnc3cnc4[nH]ccc4c23)C1` (stereo not drawn) [Ex. 47, N,N-dimethyl-3-(3H-pyrrolo[3,2-f][1,7]naphthyridin-9-yl)piperidine-1-carboxamide], for which the pIC50 in test [1], in test [2] and in test [3] was 7.70 to 9.00 each time.
As to `CCNC(=O)N1CCCC(c2ccnc3cnc4[nH]ccc4c23)C1` (stereo not drawn) [Ex. 48, N-ethyl-3-(3H-pyrrolo[3,2-f][1,7]naphthyridin-9-yl)piperidine-1-carboxamide], the pIC50 in test [1], in test [2] and in test [3] was less than 7.70 in each case.
For `CC(C)CNC(=O)N1CCCC(c2ccnc3cnc4[nH]ccc4c23)C1` (stereo not drawn) [Ex. 49, N-isobutyl-3-(3H-pyrrolo[3,2-f][1,7]naphthyridin-9-yl)piperidine-1-carboxamide], the pIC50 in test [1], in test [2] and in test [3] was less than 7.70 throughout.
Take `CNC(=O)N1CCCC(c2ccnc3cnc4[nH]ccc4c23)C1` (stereo not drawn) [Ex. 50, N-methyl-3-(3H-pyrrolo[3,2-f][1,7]naphthyridin-9-yl)piperidine-1-carboxamide]: the pIC50 in test [1], in test [2] and in test [3] was less than 7.70 in each case.
For `c1cc(N2CCCC(OCC3CC3)C2)c2c(cnc3[nH]ccc32)n1` (stereo not drawn) [Ex. 56, 9-[3-(cyclopropylmethoxy)-1-piperidyl]-3H pyrrolo[3,2f][1,7] naphthyridine], the negative logarithm of the IC50 (pIC50) in test [1], in test [2] and in test [3] was 7.70 to 9.00 in each case.
With `c1cc(N2CCC(OCC3CC3)CC2)c2c(cnc3[nH]ccc32)n1` [Ex. 60, 9-[4-(cyclopropylmethoxy)-1-piperidyl]-3H-pyrrolo[3,2-f][1,7]naphthyridine], the pIC50 in test [1] is less than 7.70; in test [2], 7.70 to 9.00; in test [3], less than 7.70.
Regarding `O=C(NC1CC1)[C@@H]1CCCN(c2ccnc3cnc4[nH]ccc4c23)C1` [Ex. 61B, (3R)-N-cyclopropyl-1-(3H-pyrrolo[3,2-f][1,7]naphthyridin-9-yl)piperidine-3-carboxamide], the pIC50 in test [1], in test [2] and in test [3] was less than 7.70 each time.
On to `CN(C(=O)CC(F)(F)F)C1CCCN(c2ccnc3cnc4[nH]ccc4c23)C1` (stereo not drawn) [Ex. 65, 3,3,3-trifluoro-N-methyl-N-[1-(3H-pyrrolo[3,2-f][1,7]naphthyridin-9-yl)-3-piperidyl]propanamide], for which the pIC50 in test [1], in test [2] and in test [3] was less than 7.70 throughout.
In the case of `CC(C)NC(=O)C1CCCN(c2ccnc3cnc4[nH]ccc4c23)C1` (stereo not drawn) [Ex. 68, N-isopropyl-1-(3H-pyrrolo[3,2-f][1,7]naphthyridin-9-yl)piperidine-3-carboxamide], the pIC50 in test [1], in test [2] and in test [3] was less than 7.70 throughout.
As to `CNC(=O)C1CCCN(c2ccnc3cnc4[nH]ccc4c23)C1` (stereo not drawn) [Ex. 71, N-methyl-1-(3H-pyrrolo[3,2-f][1,7]naphthyridin-9-yl)piperidine-3-carboxamide], the pIC50 in test [1], in test [2] and in test [3] was less than 7.70 in each case.
For `CCNC(=O)C1CCCN(c2ccnc3cnc4[nH]ccc4c23)C1` (stereo not drawn) [Ex. 72, N-ethyl-1-(3H-pyrrolo[3,2-f][1,7]naphthyridin-9-yl)piperidine-3-carboxamide], the negative logarithm of the IC50 (pIC50) in test [1], in test [2] and in test [3] was less than 7.70 throughout.
On to `O=C(NC1CCCN(c2ccnc3cnc4[nH]ccc4c23)C1)C1CC1` (stereo not drawn) [Ex. 74, N-[1-(3H-pyrrolo[3,2-f][1,7]naphthyridin-9-yl)-3-piperidyl] cyclopropanecarbox-amide], for which the pIC50 in test [1], in test [2] and in test [3] was less than 7.70 in each case.
Regarding `O=S(=O)(NC1CCCN(c2ccnc3cnc4[nH]ccc4c23)C1)C(F)(F)F` (stereo not drawn) [Ex. 81, 1,1,1-trifluoro-N-[1-(3H-pyrrolo[3,2-f][1,7]naphthyridin-9-yl)-3-piperidyl]methane sulfonamide], the negative logarithm of the IC50 (pIC50) in test [1], in test [2] and in test [3] was 7.70 to 9.00 throughout.
Turning to `O=C(NCC(F)(F)F)C1CCCN(c2ccnc3cnc4[nH]ccc4c23)C1` (stereo not drawn) [Ex. 83, 1-(3H-pyrrolo[3,2-f][1,7]naphthyridin-9-yl)-N-(2,2,2-trifluoroethyl)piperidine-3-carboxamide], the pIC50 in test [1], in test [2] and in test [3] was 7.70 to 9.00 throughout.
As to `CC(C)NC(=O)C1CCN(c2ccnc3cnc4[nH]ccc4c23)C1` (stereo not drawn) [Ex. 84, N-isopropyl-1-(3H-pyrrolo[3,2-f][1,7]naphthyridin-9-yl)pyrrolidine-3-carboxamide], the pIC50 in test [1] was 7.70 to 9.00; in test [2] it was less than 7.70; in test [3], less than 7.70.
For the compound `O=C(NC1CC1)C1CCN(c2ccnc3cnc4[nH]ccc4c23)C1` (stereo not drawn) [Ex. 85, N-cyclopropyl-1-(3H-pyrrolo[3,2-f][1,7]naphthyridin-9-yl)pyrrolidine-3-carboxamide], the negative logarithm of the IC50 (pIC50) in test [1], in test [2] and in test [3] was less than 7.70 throughout.
`O=C(CC(F)(F)F)NC1CCCN(c2ccnc3cnc4[nH]ccc4c23)C1` (stereo not drawn) [Ex. 87, 3,3,3-trifluoro-N-[1-(3H-pyrrolo[3,2-f][1,7]naphthyridin-9-yl)-3-piperidyl] propanamide]: the pIC50 is less than 7.70 in test [1], less than 7.70 in test [2] and 7.70 to 9.00 in test [3].
In the case of `N#CCC(=O)N1CCN(c2ccnc3cnc4[nH]ccc4c23)CC1` [Ex. 102, 3-oxo-3-[4-(3H-pyrrolo[3,2-f][1,7]naphthyridin-9-yl)piperazin-1-yl]propanenitrile], the pIC50 in test [1], in test [2] and in test [3] was less than 7.70 throughout.
Consider `N#CCS(=O)(=O)N1CCN(c2ccnc3cnc4[nH]ccc4c23)CC1` [Ex. 105, 2-[4-(3H-pyrrolo[3,2-f][1,7]naphthyridin-9-yl)piperazin-1-yl]sulfonylacetonitrile], for which the negative-log IC50 (pIC50) in test [1] is 7.70 to 9.00; in test [2], less than 7.70; in test [3] it was less than 7.70.

The pIC50 is the negative decadic logarithm of the IC50, by convention in mol/L.
